Results as given in ChEMBL document CHEMBL4270495, “Oleanane-, ursane-, and quinone methide friedelane-type triterpenoid derivatives: Recent advances in cancer treatment” (Eur J Med Chem, 2017).

What was measured:
HepG2 [1] = assay: Cytotoxicity in human HepG2 cells assessed as reduction in cell viability incubated for 48 hrs by MTT assay; assay type: functional, cell-based; settings: HepG2, 48 h
SMMC-7721 = assay: Cytotoxicity in human SMMC7721 cells assessed as reduction in cell viability incubated for 48 hrs by MTT assay; assay type: functional, cell-based; settings: SMMC-7721, 48 h
BGC-823 = assay: Cytotoxicity in human BGC823 cells assessed as reduction in cell viability; assay type: functional, cell-based
HeLa [2] = assay: Cytotoxicity in human HeLa cells assessed as reduction in cell viability; assay type: functional, cell-based
MCF7 [3] = assay: Cytotoxicity in human MCF7 cells assessed as reduction in cell viability incubated for 72 hrs by MTT assay; assay type: functional, cell-based; settings: MCF7, 72 h
HeLa [4] = assay: Cytotoxicity in human HeLa cells assessed as reduction in cell viability incubated for 72 hrs by MTT assay; assay type: functional, cell-based
HT-29 = assay: Cytotoxicity in human HT-29 cells assessed as reduction in cell viability incubated for 72 hrs by MTT assay; assay type: functional, cell-based; settings: HT-29, 72 h
SGC-7901 [5] = assay: Cytotoxicity in human SGC7901 cells assessed as reduction in cell viability incubated for 48 hrs by MTT assay; assay type: functional, cell-based; settings: SGC-7901, 48 h
B16-F10 = assay: Cytotoxicity in mouse B16F10 cells assessed as reduction in cell viability incubated for 72 hrs by MTT assay; assay type: functional, cell-based; settings: B16-F10, 72 h
HepG2 [6] = assay: Cytotoxicity in human HepG2 cells assessed as reduction in cell viability incubated for 72 hrs by MTT assay; assay type: functional, cell-based; settings: HepG2, 72 h
HepG2 [7] = assay: Cytotoxicity in human HepG2 cells assessed as reduction in cell viability incubated for 72 hrs by CCK8 assay; assay type: functional, cell-based; settings: HepG2, 72 h
SGC-7901 [8] = assay: Cytotoxicity in human SGC7901 cells assessed as reduction in cell viability incubated for 72 hrs by CCK8 assay; assay type: functional, cell-based; settings: SGC-7901, 72 h
A549 [9] = assay: Cytotoxicity in human A549 cells assessed as reduction in cell viability incubated for 72 hrs by CCK8 assay; assay type: functional, cell-based; settings: A549, 72 h
HeLa [10] = assay: Cytotoxicity in human HeLa cells assessed as reduction in cell viability incubated for 72 hrs by CCK8 assay; assay type: functional, cell-based
MCF7 [11] = assay: Cytotoxicity in human MCF7 cells assessed as reduction in cell viability incubated for 72 hrs by CCK8 assay; assay type: functional, cell-based; settings: MCF7, 72 h
PC-3 = assay: Cytotoxicity in human PC3 cells assessed as reduction in cell viability incubated for 72 hrs by CCK8 assay; assay type: functional, cell-based; settings: PC-3, 72 h
[12] = Cytotoxicity in human SPC-A1 cells assessed as reduction in cell viability incubated for 24 hrs by MTT assay; assay type: functional, cell-based; settings: SPCA1, 24 h
A-375 = assay: Cytotoxicity in human A375 cells assessed as reduction in cell viability incubated for 24 hrs by MTT assay; assay type: functional, cell-based; settings: A-375, 24 h
NCI-H446 = assay: Cytotoxicity in human NCI-H446 cells assessed as reduction in cell viability incubated for 24 hrs by MTT assay; assay type: functional, cell-based; settings: NCI-H446, 24 h
A549 [13] = assay: Cytotoxicity in human A549 cells assessed as reduction in cell viability incubated for 48 hrs by MTT assay; assay type: functional, cell-based; settings: A549, 48 h
HUVEC = assay: Cytotoxicity in HUVEC cells assessed as reduction in cell viability incubated for 48 hrs by MTT assay; assay type: cell-based; settings: Homo sapiens
MDA-MB-231 [14] = assay: Cytotoxicity in human MDA-MB-231 cells assessed as reduction in cell viability incubated for 48 hrs by SRB assay; assay type: functional; settings: MDA-MB-231, 48 h
[15] = Cytotoxicity in human SPCA2 cells assessed as reduction in cell viability incubated for 48 hrs by MTT assay; assay type: functional, cell-based; settings: SPCA2, 48 h
MCF7 [16] = assay: Cytotoxicity in human MCF7 cells assessed as reduction in cell viability incubated for 48 hrs by SRB assay; assay type: functional, cell-based; settings: MCF7, 48 h
T-24 = assay: Cytotoxicity in human T24 cells assessed as reduction in cell viability incubated for 48 hrs by MTT assay; assay type: functional, cell-based; settings: T-24, 48 h
MDA-MB-231 [17] = assay: Cytotoxicity in human MDA-MB-231 cells assessed as reduction in cell viability incubated for 24 hrs by MTT assay; assay type: functional, cell-based; settings: MDA-MB-231, 24 h
MCF7 [18] = assay: Cytotoxicity in human MCF7 cells assessed as reduction in cell viability incubated for 24 hrs by MTT assay; assay type: functional, cell-based; settings: MCF7, 24 h
HL-60 = assay: Cytotoxicity in human HL60 cells assessed as reduction in cell viability incubated for 24 hrs by MTT assay; assay type: functional, cell-based; settings: HL-60, 24 h
T47D = assay: Cytotoxicity in human T47D cells assessed as reduction in cell viability incubated for 24 hrs by MTT assay; assay type: functional, cell-based
MCF-12A = assay: Cytotoxicity in human MCF12A cells assessed as reduction in cell viability incubated for 24 hrs by MTT assay; assay type: functional, cell-based
MDA-MB-468 = assay: Cytotoxicity in human MDA-MB-468 cells assessed as reduction in cell viability incubated for 24 hrs by MTT assay; assay type: functional, cell-based; settings: MDA-MB-468, 24 h
HL60/ADR = assay: Cytotoxicity in human HL60/ADR cells assessed as reduction in cell viability incubated for 24 hrs by MTT assay; assay type: functional, cell-based

## COC1=C(Br)C(=O)c2c([nH]c3c2C[C@]2(C)[C@H]4CC=C5[C@@H]6[C@@H](C)[C@H](C)CC[C@]6(C(=O)O)CC[C@@]5(C)[C@]4(C)CC[C@H]2C3(C)C)C1=O
HepG2 [1]
  IC50: 1.6 µM
SMMC-7721
  IC50: 1.2 µM

## CC(=O)O[C@H]1CC[C@]2(C)[C@H]3CC=C4[C@@H]5[C@@H](C)[C@H](C)CC[C@]5(C(=O)N5CCOCC5)CC[C@@]4(C)[C@]3(C)CC[C@H]2C1(C)C
BGC-823
  IC50: > 10 µM
HeLa [2]
  IC50: 2.2 µM

## COC(=O)[C@]12CC[C@@H](C)[C@H](C)[C@H]1C1=CC(=O)[C@@H]3[C@@]4(C)C(C#N)=C[C@@](C)(COS(C)(=O)=O)[C@@H]4CC[C@@]3(C)[C@]1(C)CC2
MCF7 [3]
  IC50: 19.5 µM
HeLa [4]
  IC50: 7.27 µM
HT-29
  IC50: 9.77 µM

## CC1=C(O)C(=O)C=C2C1=CC=C1[C@@]2(C)CC[C@@]2(C)[C@@H]3C[C@](C)(C(=O)NCC(C)O)CC[C@]3(C)CC[C@]12C (some centres undefined)
SMMC-7721
  IC50: 0.61 µM
SGC-7901 [5]
  IC50: 0.1 µM

## CCCC(=O)O[C@@H]1C[C@]2(C)[C@H]3CC=C4[C@@H]5CC(C)(C)CC[C@]5(C(=O)NCCCCCCCCCCC(=O)O)CC[C@@]4(C)[C@]3(C)CC[C@H]2C(C)(C)[C@H]1OC(=O)CCC
B16-F10
  IC50: 5.7 µM
HepG2 [6]
  IC50: 27.6 µM
HT-29
  IC50: 1.37 µM

## COC(=O)C1CCCN1C(=O)[C@]12CC[C@@H](C)[C@H](C)[C@H]1C1=CC[C@@H]3[C@@]4(C)C[C@@H](OC(C)=O)[C@H](OC(C)=O)[C@@](C)(COC(C)=O)[C@@H]4CC[C@@]3(C)[C@]1(C)CC2 (some centres undefined)
HepG2 [7]
  IC50: 0.9 µM
SGC-7901 [8]
  IC50: 4.6 µM
A549 [9]
  IC50: 2.4 µM
HeLa [10]
  IC50: 4.8 µM
MCF7 [11]
  IC50: 4.5 µM
PC-3
  IC50: 9.2 µM

## CC(=O)OC[C@]1(C)[C@@H]2CC[C@]3(C)[C@H](C(=O)C=C4[C@H]5[C@](C(=O)OCC(=O)N/N=C/c6ccc(Cl)cc6)(CC[C@@H](C)[C@@]5(C)O)CC[C@]43C)[C@@]2(C)CC[C@@H]1OC(C)=O
[12]
  IC50: > 100 µM
A-375
  IC50: > 100 µM
NCI-H446
  IC50: > 100 µM

## CC(=O)OC[C@]1(C)[C@@H]2CC[C@]3(C)[C@H](C(=O)C=C4[C@H]5[C@](C(=O)OCC(=O)N/N=C/c6ccc(C)cc6)(CC[C@@H](C)[C@@]5(C)O)CC[C@]43C)[C@@]2(C)CC[C@@H]1OC(C)=O
[12]
  IC50: 7.4 µM
A-375
  IC50: 6.5 µM
NCI-H446
  IC50: 15 µM

## CCCC(=O)OC[C@]1(C)C=C(C=O)[C@@]2(C)[C@H]1CC[C@]1(C)[C@@H]2C(=O)C=C2[C@@H]3[C@@H](C)[C@H](C)CC[C@]3(C(=O)OC)CC[C@]21C
MCF7 [3]
  IC50: 0.88 µM
HeLa [4]
  IC50: 0.49 µM
HT-29
  IC50: 0.77 µM

## CCCC(=O)O[C@H]1CC[C@]2(C)[C@H]3CC=C4[C@@H]5[C@@H](C)[C@H](C)CC[C@]5(C(=O)N5CCOCC5)CC[C@@]4(C)[C@]3(C)CC[C@H]2C1(C)C
BGC-823
  IC50: 9.7 µM
HeLa [2]
  IC50: > 10 µM

## C[C@H]1[C@H](C)CC[C@]2(C(=O)O)CC[C@]3(C)C(=CC[C@@H]4[C@@]5(C)C[C@@H](O)[C@H](O)[C@@](C)(CO)[C@@H]5CC[C@]43C)[C@H]12 [ASIATIC ACID]
SGC-7901 [8]
  IC50: 36.8 µM
A549 [13]
  IC50: 37.8 µM
A549 [9]
  IC50: 18.8 µM
HUVEC
  IC50: > 100 µM
MDA-MB-231 [14]
  GI50: 18.1 µM
[15]
  IC50: 39.4 µM
MCF7 [16]
  GI50: 19.1 µM
HeLa [10]
  IC50: 4 to 55.1 µM
T-24
  IC50: 33.7 µM
MCF7 [11]
  IC50: 32.8 µM
PC-3
  IC50: 53.6 µM

## CC1(C)CC[C@]2(C(=O)O)CC[C@]3(C)C(=CC[C@@H]4[C@@]5(C)CC[C@H](O)C(C)(C)[C@@H]5CC[C@]43C)[C@@H]2C1 [OLEANOLIC_ACID]
MDA-MB-231 [17]
  IC50: > 50 µM
MCF7 [18]
  IC50: 12.7 µM
HL-60
  IC50: 14.8 µM
T47D
  IC50: 36.2 µM
MCF-12A
  IC50: > 50 µM
MDA-MB-468
  IC50: 38.1 µM
MDA-MB-231 [14]
  GI50: 17.6 µM
HL60/ADR
  IC50: 28.8 µM
MCF7 [16]
  GI50: 10.3 µM
